Article PMC8725448 (Journal of Cannabis Research, 2022)
“And” between values parts separate entries of the source, which are not always exact repeats. Equal entries are not always repeated. Where two headings read alike, the source gives them in different places.

How the values were obtained:
[1] = test system: hyperthermia-induced seizures in Scn1a^+/- mice; conditions: cited from earlier work
[2] = test system: control HEK293 cells; assay: GPR55 negative control pERK experiment; format: cell-based, human; conditions: 10 μM; control HEK293 cells without GPR55
Experimental: ERK phosphorylation (pERK) was detected using the AlphaScreen® SureFire® Phospho-ERK1/2 assay (Perkin Elmer; Waltham, USA) as previously described (Anderson et al. [2021b]). Briefly, the human embryonic kidney (HEK) 293 cells stably expressing human GPR55 in L-15 media were plated (110,000/well) into a Corning CellBIND (Corning Inc; Corning, USA) clear, flat-bottomed 96-well plate and incubated 20–24 h at 37°C in ambient CO2. Media was aspirated, 50 μL phenol red-free DMEM/F-12 was added to each well and incubated for 2–3 h at 37°C in a humidified 5% CO2 atmosphere. Compounds (10 μM in phenol red-free DMEM/F-12) were added and incubated for 20 min before media was aspirated and lysis buffer was added. Lysates (5 μL) were incubated with reaction mixture (7 μL) for 3.5 h at room temperature. A CLARIOstar plate reader (BMG Labtech; Offenburg, GER) was used to take fluorescence readings over 740 msec (excitation 680 nm, emission 520–620 nm). Fluorescence readings were normalized to those of 4 μM LPI, the endogenous GPR55 agonist. No effect of LPI (10 μM) is observed in control HEK293 cells (Supplemental Fig. 1). Final DMSO concentrations were ≤ 0.2%. […]
(LPI). Data are expressed as mean ± SEM normalized to 100 nM phorbol 12-myrisate 13-acetate (PMA), […]

[3] = biological target: T1, CaV3.1 (Homo sapiens, UniProt O43497); design: method as in Anderson et al. 2021a, 2021b and unpublished data; conditions: at therapeutically relevant concentrations; ref Anderson et al. 2021a, 2021b and unpublished data; cited from earlier work
T1 construct: expressed in transfected cells; host or cells: Flp-In T-REx HEK (tetracycline-induced)
T1 sequence (O43497 whole entry): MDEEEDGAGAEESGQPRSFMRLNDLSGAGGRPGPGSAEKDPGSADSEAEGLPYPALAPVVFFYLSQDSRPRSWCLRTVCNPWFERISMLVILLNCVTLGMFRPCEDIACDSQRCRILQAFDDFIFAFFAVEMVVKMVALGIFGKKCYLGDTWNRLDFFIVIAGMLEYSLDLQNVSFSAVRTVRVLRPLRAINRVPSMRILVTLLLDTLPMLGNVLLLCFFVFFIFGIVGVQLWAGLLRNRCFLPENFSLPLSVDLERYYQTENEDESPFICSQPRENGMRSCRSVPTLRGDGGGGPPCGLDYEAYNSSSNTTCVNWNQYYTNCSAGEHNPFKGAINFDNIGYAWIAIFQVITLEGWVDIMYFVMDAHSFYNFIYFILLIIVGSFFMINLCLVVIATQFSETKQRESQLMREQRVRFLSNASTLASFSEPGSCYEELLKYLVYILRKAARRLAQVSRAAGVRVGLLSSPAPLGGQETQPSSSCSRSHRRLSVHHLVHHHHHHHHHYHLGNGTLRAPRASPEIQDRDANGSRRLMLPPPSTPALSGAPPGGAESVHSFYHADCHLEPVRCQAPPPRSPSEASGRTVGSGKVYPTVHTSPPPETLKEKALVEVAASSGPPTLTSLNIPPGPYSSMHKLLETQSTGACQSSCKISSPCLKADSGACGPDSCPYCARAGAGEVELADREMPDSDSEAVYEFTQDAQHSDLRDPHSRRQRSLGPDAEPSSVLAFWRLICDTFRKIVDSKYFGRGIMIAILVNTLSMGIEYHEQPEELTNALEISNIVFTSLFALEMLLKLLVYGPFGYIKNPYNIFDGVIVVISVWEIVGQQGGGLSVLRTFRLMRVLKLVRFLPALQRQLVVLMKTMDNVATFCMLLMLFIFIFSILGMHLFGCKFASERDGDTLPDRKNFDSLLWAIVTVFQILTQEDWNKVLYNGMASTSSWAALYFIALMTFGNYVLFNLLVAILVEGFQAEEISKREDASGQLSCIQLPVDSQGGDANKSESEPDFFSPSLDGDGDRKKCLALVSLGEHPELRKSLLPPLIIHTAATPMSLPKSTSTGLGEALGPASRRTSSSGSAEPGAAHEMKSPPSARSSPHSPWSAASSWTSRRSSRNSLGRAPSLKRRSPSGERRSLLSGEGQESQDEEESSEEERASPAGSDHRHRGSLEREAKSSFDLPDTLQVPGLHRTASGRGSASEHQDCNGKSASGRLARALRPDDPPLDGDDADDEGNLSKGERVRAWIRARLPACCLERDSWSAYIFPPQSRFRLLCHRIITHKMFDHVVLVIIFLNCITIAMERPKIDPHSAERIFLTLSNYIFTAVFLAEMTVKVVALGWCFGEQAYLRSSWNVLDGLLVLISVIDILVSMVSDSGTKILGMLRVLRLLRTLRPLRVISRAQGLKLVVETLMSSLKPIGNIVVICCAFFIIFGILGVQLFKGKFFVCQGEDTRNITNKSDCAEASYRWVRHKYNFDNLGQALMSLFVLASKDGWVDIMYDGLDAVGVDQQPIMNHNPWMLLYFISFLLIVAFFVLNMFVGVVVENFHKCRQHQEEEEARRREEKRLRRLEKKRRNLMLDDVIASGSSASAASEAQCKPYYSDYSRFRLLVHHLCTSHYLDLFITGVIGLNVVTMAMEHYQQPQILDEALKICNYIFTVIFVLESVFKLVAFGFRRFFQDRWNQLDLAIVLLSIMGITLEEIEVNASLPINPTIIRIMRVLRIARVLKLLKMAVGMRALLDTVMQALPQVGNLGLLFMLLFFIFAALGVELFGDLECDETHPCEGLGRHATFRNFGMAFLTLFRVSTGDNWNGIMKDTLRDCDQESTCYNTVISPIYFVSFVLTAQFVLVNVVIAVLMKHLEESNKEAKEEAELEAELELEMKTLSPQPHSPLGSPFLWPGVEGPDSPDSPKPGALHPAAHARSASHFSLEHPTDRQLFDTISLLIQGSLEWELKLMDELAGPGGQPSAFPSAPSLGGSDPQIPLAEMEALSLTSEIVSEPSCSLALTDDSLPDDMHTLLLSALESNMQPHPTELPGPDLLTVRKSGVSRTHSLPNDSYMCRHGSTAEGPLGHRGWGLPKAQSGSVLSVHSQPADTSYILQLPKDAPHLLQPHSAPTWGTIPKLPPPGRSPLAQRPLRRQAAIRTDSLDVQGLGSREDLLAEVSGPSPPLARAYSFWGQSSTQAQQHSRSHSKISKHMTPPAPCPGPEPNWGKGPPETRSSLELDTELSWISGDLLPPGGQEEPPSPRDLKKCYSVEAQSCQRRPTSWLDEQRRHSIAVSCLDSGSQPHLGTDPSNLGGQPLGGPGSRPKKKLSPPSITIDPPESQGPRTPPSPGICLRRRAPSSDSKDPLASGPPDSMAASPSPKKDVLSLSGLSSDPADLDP

[4] = biological target: T2, human GPR55 (Homo sapiens, UniProt Q9Y2T6); design: method as in Anderson et al. 2021a, 2021b and unpublished data; conditions: at therapeutically relevant concentrations; ref Anderson et al. 2021a, 2021b and unpublished data; cited from earlier work
T2 construct: expressed in transfected cells; host or cells: HEK293
T2 sequence (Q9Y2T6 whole entry): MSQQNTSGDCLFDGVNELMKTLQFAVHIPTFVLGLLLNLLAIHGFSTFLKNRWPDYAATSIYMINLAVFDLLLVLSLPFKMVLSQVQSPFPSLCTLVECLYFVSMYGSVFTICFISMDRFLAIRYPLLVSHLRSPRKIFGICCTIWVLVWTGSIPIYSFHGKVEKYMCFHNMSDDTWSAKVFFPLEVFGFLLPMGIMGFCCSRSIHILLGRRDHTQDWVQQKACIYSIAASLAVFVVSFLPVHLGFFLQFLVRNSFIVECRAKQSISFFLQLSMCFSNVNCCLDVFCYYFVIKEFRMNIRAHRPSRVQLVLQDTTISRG

[5] = test system: maximal electroshock (MES) seizure threshold; design: method as in Anderson et al. 2021b; conditions: ref Anderson et al. 2021b; cited from earlier work
[6] = design: method as in Anderson et al. 2019b; conditions: CBGA; ref Anderson et al. 2019b; cited from earlier work
[7] = ref Anderson et al. 2019b, 2021a, 2021b

## C=C(C)[C@@H]1CCC(C)=C[C@H]1c1c(O)cc(CCCCC)c(C(=O)O)c1O [CBDA, cannabidiolic acid]
[1]; [7]
  efficacy against hyperthermia-induced seizures: anticonvulsant

## Lysophosphatidylinositol [LPI]
[2]
  effect on ERK phosphorylation: No effect

## CCCc1cc(O)c(C/C=C(\C)CCC=C(C)C)c(O)c1C(=O)O [CBGVA]
[1]; [7]
  efficacy against hyperthermia-induced seizures: anticonvulsant

## CCCCCc1cc(O)c(C/C=C(\C)CCC=C(C)C)c(O)c1C(=O)O [CBGA, Cannabigerolic acid]
[3]
  activity at Cav3.1 channels: inhibition
[4]
  activity at GPR55: inhibition
[5]
  anticonvulsant properties in MES seizure threshold test: anticonvulsant properties
[1]; 30 mg/kg, ref Anderson et al. 2021b
  efficacy against hyperthermia-induced seizures: effective
[1]; 100 mg/kg, ref Anderson et al. 2021b
  increase of threshold temperature: ~1 °C
[1]; [7]
  efficacy against hyperthermia-induced seizures: anticonvulsant properties
[6]
  brain penetration / brain uptake: 2% and ~ 2%

## C=C(C)[C@@H]1CCC(C)=C[C@H]1c1c(O)cc(CCCCC)cc1O [CBD, cannabidiol]
[1]; 100 mg/kg, ref Anderson et al. 2019a, 2020, Kaplan et al. 2017
  increase of temperature threshold: approximately 0.5 °C

## CCCCCc1cc2c(c(O)c1C(=O)O)C=CC(C)(CCC=C(C)C)O2 (centres unmarked) [CBCA]
[1]; [7]
  efficacy against hyperthermia-induced seizures: anticonvulsant

## C=C(C)[C@@H]1CCC(C)=C[C@H]1c1c(O)cc(CCC)c(C(=O)O)c1O [CBDVA]
[1]; [7]
  efficacy against hyperthermia-induced seizures: anticonvulsant

## CCCCCc1cc(O)c(C/C=C(\C)CCC=C(C)C)c(O)c1 [CBG, cannabigerol]
[1]; [7]
  efficacy against hyperthermia-induced seizures: not effective
